Test results: patent US10138245B2, “Fused triazole derivatives as phosphodiesterase 10A inhibitors” (Celon Pharma S.A., priority 2014, dated 2018)

Key:
[1] = Metabolic stability in rat liver microsomal fraction; format: in vitro ADME; conditions: liver microsomes, 37° C., phase I cofactors; for microsomal CLint: read-out: Cl(int)
Experimental: Tested compounds were incubated in triplicates with rat liver microsomal fraction at 37° C. in the presence of metabolic phase I cofactors (NADP, G6P, G6P dehydrogenase, MgCl2) necessary for metabolic transformations. Concentration of a non-metabolized tested compound in the reaction mixture was measured using LC/MS method at 4 time points: after 0, 20, 40 and 60 min of incubation. The AUC of compounds at those time points were compared with AUC at point 0 to obtain % loss of parental compound. The obtained data were used for calculation of internal clearance (Cl(int)) and half-life (T½). The metabolic activity of microsomes was assessed by measuring the stability of two standards with low and high metabolic stability, propranolol and donepezil, respectively.

[2] = target: Recombinant human phosphodiesterase 10A (PDE10A) (Homo sapiens (Human), UniProt Q9Y233); experiment: Assay of phosphodiesterase 10 inhibition in vitro (PDE-Glo luminescent method); format: biochemical; conditions: averaged IC50 values, read-out: hPDE10A1 IC50
Experimental: 1. Assay of Phosphodiesterase 10 Inhibition In Vitro
Recombinant human phosphodiesterase 10A (PDE10A) purified to homogeneity from Sf9 cells overexpressing PDE10A gene (GenBank/EMBL accession number: NM_001130690) was used for inhibition tests.
Inhibitory activity of the compounds towards PDE10A was tested using PDE-Glo (Promega Corporation, Madison, USA) luminescent method on 96-well plates. Test was performed for 8 concentrations of the compounds. Test compounds were dissolved in 100% DMSO and resulted solutions were diluted 5× in concentrated PDE-Glo Reaction Buffer. Eight concentrations of each tested compound were obtained by subsequent dilution. 5 μl of obtained solutions were added into the wells of 96-well plate. Next, 7.5 μl of a solution containing […] enzyme diluted in 1× concentrated PDE-Glo Reaction Buffer were added into the well to obtain the final amount of 2-10 ng (depending on the activity of the enzyme batch used in the study). In order to facilitate interaction between compounds and the enzyme, plates were incubated for 1 minute at room temperature and then 9 minutes at 4° C. Reaction was initiated by addition of 12.5 μl of 2 μM cAMP solution into the well and subsequently plate was incubated at 30° C.
After 40 minutes reaction was stopped by addition of 12.5 μl of PDE-Glo Termination Buffer with high concentration of a known PDE10 inhibitor. Plate content was stirred with orbital shaker at 500 RPMs for 10 minutes and then in the next step 12.5 μl of freshly prepared PDE-Glo Detection Solution were added into the well.
Plate was incubated for 20 minutes at room temperature before 50 μl of Kinase Glo reagent (Promega Corporation, Madison, USA) was applied into the wells and incubation at room temperature was continued for the next 10 minutes. After incubation, luminescence intensity in wells was measured with the Victor Light (Perkin Elmer Inc.) luminometer.
Percent of PDE10A inhibition by tested compounds was determined based on luminescence intensity measurements in wells containing test compounds and in control wells. Results were then fitted using a four-parameter logistic fit in GraphPad Prism 5.03 software (GraphPad Software Inc.). Negative control wells contained all above mentioned reagents except test compounds and positive control wells contained all above mentioned reagents except test compounds and the PDE10A enzyme. Each chemical compound was assayed in at least two independent runs (2×96-well plate in duplicate) with at least 3 wells of each of the controls.

Chain of Recombinant human phosphodiesterase 10A (PDE10A) (Q9Y233 267-1055): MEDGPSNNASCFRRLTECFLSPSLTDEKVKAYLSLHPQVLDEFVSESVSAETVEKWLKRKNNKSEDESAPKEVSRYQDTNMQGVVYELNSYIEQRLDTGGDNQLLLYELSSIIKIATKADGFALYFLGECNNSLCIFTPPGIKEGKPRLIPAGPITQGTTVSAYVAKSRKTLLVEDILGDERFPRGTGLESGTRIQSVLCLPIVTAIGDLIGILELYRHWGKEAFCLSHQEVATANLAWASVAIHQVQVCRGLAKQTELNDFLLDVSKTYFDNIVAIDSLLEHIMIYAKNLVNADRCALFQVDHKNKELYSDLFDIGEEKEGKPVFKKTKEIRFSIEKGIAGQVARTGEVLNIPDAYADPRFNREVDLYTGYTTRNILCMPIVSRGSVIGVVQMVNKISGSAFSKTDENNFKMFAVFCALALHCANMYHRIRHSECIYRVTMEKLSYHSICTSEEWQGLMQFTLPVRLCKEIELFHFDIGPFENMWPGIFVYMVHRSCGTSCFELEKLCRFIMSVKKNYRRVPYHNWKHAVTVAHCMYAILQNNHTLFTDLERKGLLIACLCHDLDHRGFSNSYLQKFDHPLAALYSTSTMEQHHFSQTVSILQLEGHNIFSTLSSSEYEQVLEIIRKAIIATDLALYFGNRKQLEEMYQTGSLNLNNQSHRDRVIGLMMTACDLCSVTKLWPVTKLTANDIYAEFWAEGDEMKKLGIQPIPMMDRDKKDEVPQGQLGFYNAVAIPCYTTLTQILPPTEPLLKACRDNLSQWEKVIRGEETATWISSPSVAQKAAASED

SMILES: Cc1ncc(C)n2nc(-c3ccc4[nH]c(-c5ccccc5)nc4c3)nc12 [Example 4, 5,8-Dimethyl-2-(2-phenyl-1H-benzimidazol-5-yl)[1,2,4]triazolo[1,5-a]pyrazine]
- half-life [1]: 1.05 h
- microsomal CLint [1]: 36.8 µL/min/mg
- IC50 [2]: 27 nM

SMILES: Cc1ncc(C)n2nc(-c3ccc4[nH]c(-c5ccccc5F)nc4c3)nc12 [Example 2, 2-[2-(2-Fluorophenyl)-1H-benzo[d]imidazol-5-yl]-5,8-dimethyl-[1,2,4]-triazolo[1,5-a]pyrazine]
- IC50 [2]: 37 nM

SMILES: COc1ccccc1-c1nc2cc(-c3nc4c(C)ncc(C)n4n3)ccc2[nH]1 [Example 41, 2-[2-(2-Methoxyphenyl)-1H-benzimidazol-5-yl]-5,8-dimethyl[1,2,4]triazolo[1,5-a]-pyrazine]
- IC50 [2]: 19.5 nM

SMILES: Cc1ncc(C)n2nc(-c3ccn4cc(-c5ccccc5)nc4n3)nc12 [Example 57, 5,8-Dimethyl-2-(2-phenylimidazo[1,2-a]pyrimidin-7-yl)[1,2,4]triazolo[1,5-a]pyrazine]
- half-life [1]: 1.1 h
- microsomal CLint [1]: 34.9 µL/min/mg
- IC50 [2]: 35.7 nM

SMILES: Cc1ncc(C)n2nc(-c3ccc4[nH]c(-c5ccccn5)nc4c3)nc12 [Example 40, 5,8-Dimethyl-2-[2-(pyridin-2-yl)-1H-benzimidazol-5-yl][1,2,4]triazolo[1,5-a]pyrazine]
- IC50 [2]: 63 nM

SMILES: Cc1ncc(C)n2nc(-c3ccc4[nH]c(-c5ccc(F)cc5)nc4c3)nc12 [Example 7, 2-[2-(4-Fluorophenyl)-1H-benzimidazol-5-yl]-5,8-dimethyl[1,2,4]triazolo[1,5-a]pyrazine]
- IC50 [2]: 54 nM

SMILES: Cc1cc(C)n2nc(-c3ccc4c(c3)nc(-c3ccccc3)n4C)nc2n1 [Example 48A, 5,7-Dimethyl-2-(1-methyl-2-phenyl-1H-benzo[d]imidazol-5-yl)-[1,2,4]-triazolo[1,5-a]pyrimidine]
- IC50 [2]: 794 nM

SMILES: Cc1cc(C)n2nc(-c3ccc4[nH]c(-c5ccccn5)nc4c3)nc2n1 [Example 3, 5,7-Dimethyl-2-[2-(pyridin-2-yl)-1H-benzo[d]imidazol-5-yl]-[1,2,4]triazolo[1,5-a]pyrimidine]
- IC50 [2]: 279 nM

SMILES: Cc1ncc(C)n2nc(-c3ccc4[nH]c(-c5cccc(F)c5)nc4c3)nc12 [Example 6, 2-[2-(3-Fluorophenyl)-1H-benzimidazol-5-yl]-5,8-dimethyl[1,2,4]triazolo[1,5-a]pyrazine]
- IC50 [2]: 172 nM

SMILES: Cc1cc(C)n2nc(-c3ccc4[nH]c(-c5ccncc5)nc4c3)nc2n1 [Example 5, 5,7-Dimethyl-2-[2-(pyridin-4-yl)-1H-benzimidazol-5-yl][1,2,4]triazolo[1,5-a]pyrimidine]
- IC50 [2]: 953 nM

SMILES: Cc1ncc(C)n2nc(-c3ccn4cc(-c5ccccc5)nc4c3)nc12 [Ex. 1 of WO2013003298, reference compound]
- half-life [1]: 0.559 h
- microsomal CLint [1]: 68.9 µL/min/mg

SMILES: Cc1cc(C)n2nc(-c3ccc4nc(-c5ccccc5)n(C)c4c3)nc2n1 [Example 48B, 5,7-Dimethyl-2-(1-methyl-2-phenyl-1H-benzo[d]imidazol-6-yl)-[1,2,4]-triazolo[1,5-a]pyrimidine]
- IC50 [2]: 413 nM

SMILES: Cc1cc(C)n2nc(-c3ccn4cc(-c5ccccc5)nc4n3)nc2n1 [Example 56, 5,7-Dimethyl-2-(2-phenylimidazo[1,2-a]pyrimidin-7-yl)[1,2,4]triazolo-[1,5-a]pyrimidine]
- IC50 [2]: 96 nM

SMILES: Cc1ncc(C)n2nc(-c3ccc4[nH]c(-c5nccs5)nc4c3)nc12 [Example 8, 5,8-Dimethyl-2-[2-(1,3-thiazol-2-yl)-1H-benzimidazol-5-yl][1,2,4]triazolo[1,5-a]pyrazine]
- IC50 [2]: 84 nM

SMILES: Cc1cc(C)n2nc(-c3ccc4[nH]c(-c5ccccc5)nc4c3)nc2n1 [Example 1, 5,7-Dimethyl-2-(2-phenyl-1H-benzo[d]imidazol-5-yl)-[1,2,4]triazolo-[1,5-a]pyrimidine]
- IC50 [2]: 47 nM
